Data from patent US7531333B2, “Process for producing isoprenoid compounds by microorganisms and a method for screening compounds with antibiotic or weeding activity” (Kyowa Hakko Kogyo Co., Ltd., priority 1998, dated 2009).
Where two headings read alike, the source gives them in different places.

Legend:
[1] = molecular target: T1, 1-deoxy-D-xylulose 5-phosphate reductoisomerase (Escherichia coli, UniProt P45568); assay: Enzymatic activity of yaeM gene product (NADPH decrease, absorbance at 340 nm); assay type: biochemical, E. coli
T1 construct: made in house; host or cells: E. coli M15/pREP4
T1 sequence (P45568 1-398 R277V/T278R/P279Q/I280L/A281P/H282T/T283P/M284W): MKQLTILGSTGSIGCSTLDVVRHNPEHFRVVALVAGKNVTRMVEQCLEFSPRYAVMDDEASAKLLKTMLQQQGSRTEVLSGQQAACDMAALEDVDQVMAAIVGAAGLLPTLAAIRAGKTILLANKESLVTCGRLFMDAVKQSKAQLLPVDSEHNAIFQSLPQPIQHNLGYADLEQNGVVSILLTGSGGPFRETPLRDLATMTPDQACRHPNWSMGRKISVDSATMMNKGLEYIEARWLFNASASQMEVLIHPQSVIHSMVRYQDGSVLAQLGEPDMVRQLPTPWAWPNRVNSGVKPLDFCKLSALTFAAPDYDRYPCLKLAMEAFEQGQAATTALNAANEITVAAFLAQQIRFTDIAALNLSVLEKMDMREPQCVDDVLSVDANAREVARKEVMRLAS
Description: (§1) […] of 1-deoxy-D-xylulose 5-phosphate (final concentration) synthesized as described above was added to 1 ml of a reaction solution containing […] Tris-hydrochloric acid (pH 7.5), […] MmCl2, […] NADPH and yaeM gene product obtained in Example 8 (2) ? , and then incubated at 37° C.
The enzymological characteristics of 1-deoxy-D-xylulose 5-phosphate reductoisomerase were examined using 1 ml of the reaction system as described in Example 8 (2) ? . Here, 1 unit is defined as the activity to oxidize 1 mmol of NADPH per a minute.

[2] = molecular target: T1, 1-deoxy-D-xylulose 5-phosphate reductoisomerase; assay type: biochemical, E. coli; settings: various concentrations, 37° C., FIG. 4
Description: as §1

[3] = tested on: E. coli W3110; assay: Growth of E. coli W3110 on LB agar medium containing fosmidomycin; assay type: cell-based; settings: 37° C., two days
Description: E. coli W3110 was spread on LB agar medium, the same medium containing 3.13 mg/l of fosmidomycin, and the same medium containing 3.13 mg/l of fosmidomycin and 0.25 g/l of 2-C-methyl-D-erythritol, then cultured at 37° C.

[4] = tested on: yaeM-deleted strain; assay: Cell growth of yaeM-disrupted strain on LB agar with 2-C-methyl-D-erythritol; assay type: cell-based, E. coli; settings: 1 g/l of 2-C-methyl-D-erythritol, 37° C., 2 days
Description: (§2) The yaeM-disrupted strain produced as described above and its parent strain FS1576 were spread on LB agar medium and the same medium containing 1 g/l of 2-C-methyl-D-erythritol, then cultured at 37° C.

[5] = tested on: FS1576; assay: Cell growth of parent strain FS1576 on LB agar with 2-C-methyl-D-erythritol; assay type: cell-based, E. coli; settings: FS1576, 1 g/l of 2-C-methyl-D-erythritol, 37° C., 2 days
Description: as §2

[6] = additive at 1 mol/l, N.D. = no activity was detected, 1 unit = activity to oxidize 1 mmol of NADPH per minute

## [Ca+2].[Cl-].[Cl-] [CaCl2]
[1]; [6]
  Specific Activity: 0.2 units/mg protein

## O=CN(O)CCCP(=O)(O)O [fosmidomycin, 3-(N-formyl-N-hydroxyamino)propylphosphonic acid]
[2]
  Inhibition of 1-deoxy-D-xylulose 5-phosphate reductoisomerase: inhibit
[3]; 3.13 mg/l of fosmidomycin and 0.25 g/l of 2-C-methyl-D-erythritol
  Growth of the microorganism on LB agar medium: could grow
[3]; 3.13 mg/l of fosmidomycin only
  Growth of the microorganism on LB agar medium: no microorganism grew

## NC(=O)C1=CN([C@@H]2O[C@H](COP(=O)(O)OP(=O)(O)OC[C@H]3O[C@@H](n4cnc5c(N)ncnc54)[C@H](O)[C@@H]3O)[C@@H](O)[C@H]2O)C=CC1 [NADH]
[1]; relative to activity with NADPH
  Activity when NADPH was replaced with NADH: below 1/100

## NC(=O)c1ccc[n+]([C@@H]2O[C@H](COP(=O)([O-])OP(=O)(O)OC[C@H]3O[C@@H](n4cnc5c(N)ncnc54)[C@H](OP(=O)(O)O)[C@@H]3O)[C@@H](O)[C@H]2O)c1 [NADP]
[1]; in the presence of MnCl2
  Km: 7.4 µM

## C[C@](O)(CO)[C@H](O)CO [ME, 2-C-methyl-D-erythritol]
[4]
  Cell growth on LB + ME: +
[5]
  Cell growth on LB + ME: +

## [Cl-].[Cl-].[Co+2] [CoCl2]
[1]
  Specific Activity: 6.0 units/mg protein

## O=S(=O)([O-])[O-].[Zn+2] [ZnSO4]
[1]; [6]
  Specific Activity: 0.3 units/mg protein

## O=S(=O)([O-])[O-].[Ni+2] [NiSO4]
[1]; [6]
  Specific Activity: 0.2 units/mg protein

## CC(=O)[C@@H](O)[C@H](O)CO [1-deoxy-D-xylulose]
[1]
  Reaction when used as substrate instead of 1-deoxy-D-xylulose 5-phosphate: No reaction occurred

## [Cl][Mn][Cl] [MnCl2]
[1]; [6]
  Specific Activity: 11.8 units/mg protein

## [Cl-].[Cl-].[Mg+2] [MgCl2]
[1]; [6]
  Specific Activity: 4.0 units/mg protein
